S35 and Kd data for 29 compounds are collected here from US9730937B2, “RAF kinase modulator compounds and methods of use thereof” (AMBIT BIOSCIENCES CORPORATION, priority 2008, dated 2017).

Assay [1] concerns panel of 290 distinct kinases (321 in the larger panel), excluding mutant variants.
A further assay deals with mutant BRAF kinase (Homo sapiens (Human), UniProt P15056, V600E). The settings on record: read-out: BRAF V600E Kd, class symbols.
Setting [2] is: kinase selectivity score, 290 distinct kinases, class symbols.
[3] abbreviates: kinase selectivity score, value marked * (larger kinase panel), class symbols.
[4] abbreviates: asterisk: panel of 321 distinct kinases.
The mark [5] stands for this setting: no asterisk: panel of 290 distinct kinases.

Structures are written as SMILES. Like-named read-outs stand apart in the source and are kept apart here.

Sequence of mutant BRAF kinase (P15056 whole entry V600E): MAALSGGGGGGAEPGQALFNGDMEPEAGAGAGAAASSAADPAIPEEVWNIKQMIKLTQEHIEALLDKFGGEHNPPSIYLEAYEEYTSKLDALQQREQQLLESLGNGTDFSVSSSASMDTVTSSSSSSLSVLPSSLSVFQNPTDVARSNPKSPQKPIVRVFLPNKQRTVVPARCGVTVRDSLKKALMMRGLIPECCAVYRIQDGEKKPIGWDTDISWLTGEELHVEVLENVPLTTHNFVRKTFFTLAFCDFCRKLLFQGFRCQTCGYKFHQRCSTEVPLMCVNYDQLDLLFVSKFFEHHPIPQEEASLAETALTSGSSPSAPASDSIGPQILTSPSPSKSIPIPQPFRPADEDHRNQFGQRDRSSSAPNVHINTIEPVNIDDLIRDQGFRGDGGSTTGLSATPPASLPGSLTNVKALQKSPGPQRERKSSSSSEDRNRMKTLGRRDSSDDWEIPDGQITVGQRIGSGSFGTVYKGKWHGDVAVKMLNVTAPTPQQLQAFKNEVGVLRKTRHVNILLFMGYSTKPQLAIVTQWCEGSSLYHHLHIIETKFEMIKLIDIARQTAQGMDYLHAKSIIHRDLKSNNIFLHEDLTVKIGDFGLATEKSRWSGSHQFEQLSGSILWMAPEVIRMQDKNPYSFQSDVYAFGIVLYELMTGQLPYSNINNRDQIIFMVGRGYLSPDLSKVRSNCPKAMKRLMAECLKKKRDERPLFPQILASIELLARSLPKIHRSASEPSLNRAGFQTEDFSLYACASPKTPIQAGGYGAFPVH

In the case of `COCCOc1cc2ncnc(Oc3cccc(NC(=O)Nc4cc(C(C)(C)C)no4)c3)c2cc1OC` [Ex 202, 1-(3-tert-butylisoxazol-5-yl)-3-(3-(6-methoxy-7-(2-methoxyethoxy)quinazolin-4-yloxy)phenyl)urea], the S35 result in assay [1] (setting [2]) is reported as “C (0.20 < C ≦ 0.40)”. In addition, the Kd on mutant BRAF kinase is less than 250 nM.
In the case of `COc1cc2c(Oc3cccc(NC(=O)Nc4cc(C(C)(C)C)on4)c3)ncnc2cc1OCCCN1CC[C@@H](O)C1` [Ex 34, (R)-1-(5-tert-Butylisoxazol-3-yl)-3-(3-(7-(3-(3-hydroxypyrrolidin-1-yl)propoxy)-6-methoxyquinazolin-4-yloxy)phenyl)urea], the S35 entry in assay [1] (setting [3]) is “D* (D > 0.40)”. The Kd at mutant BRAF kinase is less than 250 nM.
For the compound `COc1cc2ncnc(Oc3cccc(NC(=O)Nc4ccc(C(C)(C)C)cc4)c3)c2cc1OC` [Ex 173, 1-(4-tert-butylphenyl)-3-(3-(6,7-dimethoxyquinazolin-4-yloxy)phenyl)urea], in assay [1] (setting [2]), the S35 entry is “C (0.20 < C ≦ 0.40)”. For the same compound, on mutant BRAF kinase, the Kd was less than 250 nM.
For `COc1cc2ncnc(Sc3cccc(NC(=O)Nc4cc(C(C)(C)C)on4)c3)c2cc1OCCN1CCN(C)CC1` [Ex 67, 1-(5-tert-butylisoxazol-3-yl)-3-(3-(7-methoxy-6-(2-(4-methylpiperazin-1-yl)ethoxy)quinazolin-4-ylthio)phenyl)urea] the same measures were “C (0.20 < C ≦ 0.40)” and less than 250 nM.
For the compound `COc1cc2c(Sc3cccc(NC(=O)Nc4cc(C(C)(C)C)on4)c3)ncnc2cc1OCCN1CCN(S(C)(=O)=O)CC1` [Ex 81, 1-(5-tert-butylisoxazol-3-yl)-3-(3-(6-methoxy-7-(2-(4-(methylsulfonyl)piperazin-1-yl)ethoxy)quinazolin-4-ylthio)phenyl)urea], the S35 result in assay [1] (setting [2]) is “C (0.20 < C ≦ 0.40)”. In addition, the Kd on mutant BRAF kinase is less than 250 nM.
For `COc1cc2ncnc(Oc3cccc(NC(=O)Nc4cc(C(C)(C)C)on4)c3)c2cc1OCCN1CCOCC1` [Ex 20, 1-(5-tert-butylisoxazol-3-yl)-3-(3-(7-methoxy-6-(2-morpholinoethoxy)quinazolin-4-yloxy)phenyl)urea] the same measures were “C (0.20 < C ≦ 0.40)” and less than 250 nM.
For `COc1cc2ncnc(Oc3cccc(NC(=O)Nc4cc(C(C)(C)C)on4)c3)c2cc1OCCN1CCC(CO)CC1` [Ex 17, 1-(5-tert-butylisoxazol-3-yl)-3-(3-(6-(2-(4-(hydroxymethyl)piperidin-1-yl)ethoxy)-7-methoxyquinazolin-4-yloxy)phenyl)urea] the same measures were “C (0.20 < C ≦ 0.40)” and less than 250 nM.
Regarding `COc1cc2c(Oc3cccc(NC(=O)Nc4cc(C(C)(C)C)on4)c3)ncnc2cc1OCCCN1CC[C@H](O)C1` [Ex 33, (S)-1-(5-tert-butylisoxazol-3-yl)-3-(3-(7-(3-(3-hydroxypyrrolidin-1-yl)propoxy)-6-methoxyquinazolin-4-yloxy)phenyl)urea], the S35 entry in assay [1] (setting [3]) is listed as “D* (D > 0.40)”. For the same compound, at mutant BRAF kinase, the Kd was less than 250 nM.
With `COc1cc2ncnc(Sc3cccc(NC(=O)Nc4cc(C(C)(C)C)on4)c3)c2cc1OCCCN1CCCCC1` [Ex 57, 1-(5-tert-butylisoxazol-3-yl)-3-(3-(7-methoxy-6-(3-(piperidin-1-yl)propoxy)quinazolin-4-ylthio)phenyl)urea], the S35 entry in assay [1] (setting [2]) was “C (0.20 < C ≦ 0.40)”. Further, the Kd on mutant BRAF kinase is less than 250 nM.
For the compound `COc1cc2c(Oc3cccc(NC(=O)Nc4cc(C(C)(C)C)on4)c3)ncnc2cc1OCCCN1CCC(CO)CC1` [Ex 29], the S35 entry in assay [1] (setting [2]) was “D (D > 0.40)”. Also, the Kd on mutant BRAF kinase is less than 250 nM.
As for `COCCOc1ccc2c(Oc3cccc(NC(=O)Nc4cc(C(C)(C)C)on4)c3)ncnc2c1` [Ex 43, 1-(5-tert-butylisoxazol-3-yl)-3-(3-(7-(2-methoxyethoxy)quinazolin-4-yloxy)phenyl)urea], in assay [1] (setting [2]), the S35 result is “C (0.20 < C ≦ 0.40)”. At mutant BRAF kinase, the Kd was less than 250 nM.
For `CC(C)(C)c1cc(NC(=O)Nc2cccc(Sc3ncnc4ccc(OCCCN5CCS(=O)(=O)CC5)cc34)c2)no1` [Ex 90, 1-(5-tert-butyl-isoxazol-3-yl)-3-(3-{6-[3-(1,1-dioxo-thiomorpholin-4-yl)-propoxy]-quinazolin-4-ylsulfanyl}-phenyl)-urea] the same measures were “C (0.20 < C ≦ 0.40)” and less than 250 nM.
Consider `CC(C)(C)c1cc(NC(=O)Nc2cccc(Oc3ncnc4ccc(-c5ccc(CNCCS(C)(=O)=O)o5)cc34)c2)no1` [Ex 92, 1-(5-tert-butylisoxazol-3-yl)-3-{3-[6-(5-{[2-(methylsulfonyl)ethylamino]methyl}furan-2-yl)quinazolin-4-yloxy]phenyl}urea], for which the S35 entry in assay [1] (setting [2]) is listed as “C (0.20 < C ≦ 0.40)”. In addition, the Kd on mutant BRAF kinase is less than 250 nM.
Turning to `COc1cc2ncnc(Sc3cccc(NC(=O)Nc4cc(C(C)(C)C)on4)c3)c2cc1OCCCN1CCN(S(C)(=O)=O)CC1` [Ex 60, 1-(5-tert-butylisoxazol-3-yl)-3-(3-(7-methoxy-6-(3-(4-(methylsulfonyl)piperazin-1-yl)propoxy)quinazolin-4-ylthio)phenyl)urea], the S35 entry in assay [1] (setting [2]) was “C (0.20 < C ≦ 0.40)”. Besides, the Kd on mutant BRAF kinase is less than 250 nM.
For `COc1cc2c(Sc3cccc(NC(=O)Nc4cc(C(C)(C)C)on4)c3)ncnc2cc1OCCN1CCN(C)CC1` [Ex 83, 1-(5-tert-butylisoxazol-3-yl)-3-(3-(6-methoxy-7-(2-(4-methylpiperazin-1-yl)ethoxy)quinazolin-4-ylthio)phenyl)urea] the same measures were “C (0.20 < C ≦ 0.40)” and less than 250 nM.
For `COCCOc1cc2c(Sc3cccc(NC(=O)Nc4cc(C(C)(C)C)on4)c3)ncnc2cc1OC` [Ex 45, 1-(5-tert-butylisoxazol-3-yl)-3-(3-(7-methoxy-6-(2-methoxyethoxy)quinazolin-4-ylthio)phenyl)urea] the same measures were “C (0.20 < C ≦ 0.40)” and less than 250 nM.
Take `COCCOc1cc2ncnc(Sc3cccc(NC(=O)Nc4cc(C(C)(C)C)nn4-c4ccccc4)c3)c2cc1OC` [Ex 236, 1-(3-tert-butyl-1-phenyl-1H-pyrazol-5-yl)-3-(3-(6-methoxy-7-(2-methoxyethoxy)quinazolin-4-ylthio)phenyl)urea]: the S35 entry in assay [1] (setting [4]) is on record as “D* (D > 0.40)”.
Still for that read-out and setting: for `COCCOc1cc2ncnc(Oc3cccc(NC(=O)Nc4cc(C(C)(C)C)nn4C)c3)c2cc1OC` [Ex 209, 1-(3-tert-butyl-1-methyl-1H-pyrazol-5-yl)-3-(3-(6-methoxy-7-(2-methoxyethoxy)quinazolin-4-yloxy)phenyl)urea] the value was “C* (0.20 < C ≦ 0.40)”.
As to `COc1cc2ncnc(Oc3cccc(NC(=O)Nc4cc(C(C)(C)C)nn4-c4ccccc4)c3F)c2cc1OC` [Ex 295, 1-(3-tert-butyl-1-phenyl-1H-pyrazol-5-yl)-3-(3-(6,7-dimethoxyquinazolin-4-yloxy)-2-fluorophenyl)urea], the S35 result in assay [1] (setting [5]) is on record as “C (0.20 < C ≦ 0.40)”.
On the same count and under the same terms, with `COc1cc2ncnc(Oc3cccc(NC(=O)Nc4cc(C(C)(C)C)nn4-c4ccc(Cl)cc4)c3)c2cc1OC` [Ex 365, 1-(3-tert-butyl-1-(4-chlorophenyl)-1H-pyrazol-5-yl)-3-(3-(6,7-dimethoxyquinazolin-4-yloxy)phenyl)urea] the entry was “D (D > 0.40)”; with `COc1cc2ncnc(Sc3cccc(NC(=O)Nc4cc(C(C)(C)C)nn4-c4ccccc4C(F)(F)F)c3)c2cc1OC` [Ex 375, 1-(3-tert-butyl-1-(2-(trifluoromethyl)phenyl)-1H-pyrazol-5-yl)-3-(3-(6,7-dimethoxyquinazolin-4-ylthio)phenyl)urea], “C (0.20 < C ≦ 0.40)”.
For the compound `CCOc1cc2ncnc(Sc3cccc(NC(=O)Nc4cc(C(C)(C)C)on4)c3)c2cc1OC` [Ex 50, 1-(5-tert-butylisoxazol-3-yl)-3-[3-(7-ethoxy-6-methoxyquinazolin-4-ylthio)phenyl]urea], the S35 result in assay [1] (setting [2]) was “B (0.10 < B ≦ 0.20)”.
`COCCOc1cc2ncnc(Sc3cccc(NC(=O)Nc4cc(C(F)(F)F)n(-c5ccccc5)n4)c3)c2cc1OC` [Ex 244, 1-{3-[6-methoxy-7-(2-methoxyethoxy)quinazolin-4-ylthio]phenyl}-3-[1-phenyl-5-(trifluoromethyl)-1H-pyrazol-3-yl]urea]: the S35 entry in assay [1] (setting [4]) is recorded as “C* (0.20 < C ≦ 0.40)”.
As for `COc1cc2ncnc(Oc3cccc(NC(=O)Nc4cc(C(C)(C)C)nn4-c4ccc(C(F)(F)F)cc4)c3)c2cc1OC` [Ex 373, 1-(3-tert-butyl-1-(4-(trifluoromethyl)phenyl)-1H-pyrazol-5-yl)-3-(3-(6,7-dimethoxyquinazolin-4-yloxy)phenyl)urea], the S35 result in assay [1] (setting [5]) is recorded as “C (0.20 < C ≦ 0.40)”.
On the same count and under the same terms, with `COc1cc2ncnc(Sc3cccc(NC(=O)Nc4cc(C(C)(C)C)nn4-c4cccc(F)c4)c3)c2cc1OC` [Ex 360, 1-(3-tert-butyl-1-(3-fluorophenyl)-1H-pyrazol-5-yl)-3-(3-(6,7-dimethoxyquinazolin-4-ylthio)phenyl)urea] the entry was “D (D > 0.40)”.
For `COCCOc1cc2ncnc(Oc3cccc(NC(=O)Nc4cc(C(C)(C)C)nn4-c4ccc(C)cc4)c3)c2cc1OC` [Ex 276, 1-(3-tert-butyl-1-p-tolyl-1H-pyrazol-5-yl)-3-(3-(6-methoxy-7-(2-methoxyethoxy)quinazolin-4-yloxy)phenyl)urea], the S35 result in assay [1] (setting [5]) is listed as “D (D > 0.40)”.
As to `COc1cc2ncnc(Oc3cccc(NC(=O)Nc4cc(C(F)(F)F)nn4-c4ccccc4)c3C)c2cc1OC` [Ex 291, 1-(3-(6,7-Dimethoxyquinazolin-4-yloxy)-2-methylphenyl)-3-(1-phenyl-3-(trifluoromethyl)-1H-pyrazol-5-yl)urea], the S35 result in assay [1] (setting [5]) was “B (0.10 < B ≦ 0.20)”.
The same measure, in the same setting: with `CCOc1cc2ncnc(Oc3cccc(NC(=O)Nc4cc(C(C)(C)F)no4)c3)c2cc1OC` [Ex 385, 1-(3-(7-ethoxy-6-methoxyquinazolin-4-yloxy)phenyl)-3-(3-(2-fluoropropan-2-yl)isoxazol-5-yl)urea] the entry was “C (0.20 < C ≦ 0.40)”.
On to `COCCOc1cc2ncnc(Oc3cccc(NC(=O)Nc4cc(C(C)(CF)CF)on4)c3)c2cc1OC` [Ex 213, 1-[5-(1,3-difluoro-2-methylpropan-2-yl)isoxazol-3-yl]-3-{3-[6-methoxy-7-(2-methoxyethoxy)quinazolin-4-yloxy]phenyl}urea], for which the S35 entry in assay [1] (setting [4]) was “D* (D > 0.40)”.

For orientation: Kd means the free concentration of one partner at which half of the binding sites on the other are occupied at equilibrium, for simple one-to-one binding.
